Where two headings read alike, the source gives them in different places.
Key:
[1] = test system: Phakopspora pachyrhizi SDM Y131F I475T isolates; design: method as in PMID 23589453; details: isolates from soybean plants in Brazil; cited from earlier work
[2] = test system: C. albicans strain SC5314; assay: Agarose disk diffusion assay, control strain SC5314; type: cell-based, Candida albicans; details: for agarose diffusion susceptibility: SC5314, no efflux pump inhibitor
Description: (§1) Agarose diffusion assays were carried out as described previously using the Darlington strain of C. albicans (Pfizer Ltd., Sandwich, UK) and the control C. albicans database strain SC5314, which is not resistant to azoles. The Cdr1p-specific inhibitor RC21v3 and the CaMdr1p-specific inhibitor MCC1189 (MicroCombiChem, Wiesbaden, Germany), included in the assay medium at 6 µM, were used to investigate the contribution of efflux pumps to azole resistance in the Darlington strain [49, 50, 51].

[3] = test system: C. albicans Darlington strain; assay: Agarose disk diffusion assay, Darlington strain; type: cell-based, Candida albicans; details: for effect of Mdr1 inhibitor MCC1189 on azole susceptibility: MCC1189 at 6 µM in the assay medium; for effect of Cdr1p inhibitor RC21v3 on azole susceptibility: RC21v3 at 6 µM in the assay medium; for agarose diffusion susceptibility: no efflux pump inhibitor
Description: as §1

[4] = target: wild-type and Y140F/H mutants of ScLDM6×His; design: method as in earlier work; details: no significant differences, ref 5 (supplement; Sagatova et al. 2016); cited from earlier work
[5] = test system: S. cerevisiae strain AD2Δ (native wild-type ScLDM); assay: Broth microdilution drug susceptibility assay (MIC80), host strain AD2Δ; type: cell-based; details: Saccharomyces cerevisiae, 48 h, pH 6.8
Description: Yeast strains used in this study (Supplementary Table S1) were prepared using the AD2Δ strain of S. cerevisiae as a host, using an established protocol. AD2Δ is hypersensitive to xenobiotics due to the deletion of seven major ABC transporters, including those responsible for the efflux of azole drugs. It is also deleted of the PDR3 transcriptional regulator, but contains the gain-of-function Pdr1-3 transcriptional regulator mutation that leads to constitutive overexpression from the PDR5 locus.
(§2) Azole susceptibility was measured as the mean drug concentration required to inhibit 80% of yeast growth (MIC80) compared to a non-drug control, using a standard broth microdilution assay. Serial dilutions of short- (FLC and VCZ), medium- (VT-1161), and long-tailed (ITC and PCZ) azole drugs, and the control drugs micafungin (MCF) and amphotericin B (AMB), were prepared in a 96-well microtiter plate in complete synthetic media lacking uracil, buffered to pH 6.8 [34]. Control and test cells were seeded at an optical density of 600 nm (OD600) of 0.005 (~1.5 × 10^4 colony forming units). After incubation for 48 h at 30 °C with constant agitation (200 rpm), the OD600 nm of each well was measured using a Synergy 2 multi-mode plate reader (BioTek Instruments, Winooski, VT, USA). The experiment was repeated three times (a total of nine measurements for the response of each strain to each drug). GraphPad Prism 5.0 software was used for statistical analysis, using a one-way analysis of variance with a Bonferroni post-hoc test. The statistical significance of comparisons was accepted when p < 0.05.

[6] = test system: S. cerevisiae strain AD3Δ ScErg11 Y140H I471T expressing ScLDM6×His Y140H I471T; assay: Broth microdilution drug susceptibility assay (MIC80), strain AD3Δ ScErg11 Y140H I471T; type: cell-based, Saccharomyces cerevisiae; details: for MIC80/Relative Amount of ScLDM6×His / fold-resistance based on the relative amount of recombinant enzyme compared with strain AD3Δ: strain Y140H+I471T, relative expression 0.41; for resistance conferred, relative expression taken into account: ScLDM6×His Y140H I471T (0.41 of wild-type) vs AD3Δ
Description: (§3) The native ScERG11 gene in yeast cells containing mutant ScERG11-6×His constructs in the PDR5 locus was disrupted by homologous recombination with a cassette encoding the His1 selection marker and sequences homologous with the regions bordering the endogenous ScERG11 ORF to create strains AD3Δ ScErg11 Y140H, AD3Δ ScErg11 I471T and AD3Δ ScErg11Y140H I471T [43]. Transformants were selected on SD-His agar plates incubated at 30 °C for 48–72 h. Genomic DNA was extracted, and DNA sequencing as above was used to confirm deletion of the native ERG11. Strain AD3Δ ScErg11 (denoted as AD3Δ), which overexpresses wild-type ScLDM6×His from the PDR5 locus and has the native ScERG11 gene disrupted, was used as a control strain [43].
as §2

[7] = test system: S. cerevisiae strain AD3Δ ScErg11 I471T expressing ScLDM6×His I471T; assay: Broth microdilution drug susceptibility assay (MIC80), strain AD3Δ ScErg11 I471T; type: cell-based, Saccharomyces cerevisiae; details: for MIC80: Saccharomyces cerevisiae, 48 h, 30 °C, pH 6.8, mean (± SEM), n = 3; for MIC80 / MIC80/Relative Amount of ScLDM6×His / fold-resistance based on the relative amount of recombinant enzyme compared with strain AD3Δ: strain I471T; for increased susceptibility compared with AD3Δ: strain AD3Δ ScErg11 I471T, not corrected for expression; for MIC80/Relative Amount of ScLDM6×His / fold-resistance based on the relative amount of recombinant enzyme compared with strain AD3Δ: relative expression 0.51
Description: as §3, §2

[8] = test system: S. cerevisiae strain AD3Δ ScErg11 Y140H expressing ScLDM6×His Y140H; assay: Broth microdilution drug susceptibility assay (MIC80), strain AD3Δ ScErg11 Y140H; type: cell-based, Saccharomyces cerevisiae; details: for MIC80: Saccharomyces cerevisiae, 48 h, 30 °C, pH 6.8, mean (± SEM), n = 3; for MIC80 / MIC80/Relative Amount of ScLDM6×His / fold-resistance based on the relative amount of recombinant enzyme compared with strain AD3Δ: strain Y140H; for resistance conferred, relative amount of recombinant ScLDM6×His taken into account: ScLDM6×His Y140H vs AD3Δ; for MIC80 higher than strain AD3Δ ScErg11: strain AD3Δ ScErg11 Y140H vs AD3Δ, p < 0.001; for MIC80/Relative Amount of ScLDM6×His / fold-resistance based on the relative amount of recombinant enzyme compared with strain AD3Δ: relative expression 0.74
Description: as §3, §2

[9] = test system: S. cerevisiae strain AD3Δ ScErg11 (AD3Δ) overexpressing wild-type ScLDM6×His; assay: Broth microdilution drug susceptibility assay (MIC80), strain AD3Δ ScErg11; type: cell-based, Saccharomyces cerevisiae; details: for MIC80: Saccharomyces cerevisiae, 48 h, pH 6.8
Description: as §3, §2

[10] = Saccharomyces cerevisiae, strain Y140H + I471T, 48 h, 30 °C, pH 6.8, mean (± SEM), n = 3
[11] = SC5314, MCC1189 at 6 µM in the assay medium
[12] = SC5314, RC21v3 at 6 µM in the assay medium
[13] = strain AD2Δ, 30 °C, mean (± SEM), n = 3, read-out: MIC80
[14] = strain AD3Δ, 30 °C, mean (± SEM), n = 3, read-out: MIC80
[15] = strain AD3Δ, relative expression 1

SMILES | resistance conferred by the double mutation Y131F I475T [1] | effect of Mdr1 inhibitor MCC1189 on azole susceptibility [3] | effect of Cdr1p inhibitor RC21v3 on azole susceptibility [3] | agarose diffusion susceptibility [3] | MIC80/Relative Amount of ScLDM6×His [6] | fold-resistance based on the relative amount of recombinant enzyme compared with strain AD3Δ [6] | MIC80 [7] | increased susceptibility compared with AD3Δ [7] | MIC80/Relative Amount of ScLDM6×His [7] | fold-resistance based on the relative amount of recombinant enzyme compared with strain AD3Δ [7] | MIC80 [8] | MIC80/Relative Amount of ScLDM6×His [8] | fold-resistance based on the relative amount of recombinant enzyme compared with strain AD3Δ [8] | also measured
Fc1ccc([C@]2(Cn3cncn3)O[C@H]2c2ccccc2Cl)cc1 (racemic) [epoxiconazole] | ~ 100 fold | – | – | – | – | – | – | – | – | – | – | – | – | –
OC(Cn1cncn1)(Cn1cncn1)c1ccc(F)cc1F [FLC, fluconazole] | – | did not alter the susceptibility | did not alter the susceptibility | resistant | 28.0 µM | 7.7 × | 1.88 µM | 1.9 fold | 3.69 µM | 1.0 × | 7.4 µM | 10 µM | 2.8 × | effect of Cdr1p inhibitor RC21v3 on azole susceptibility [2]: did not alter the susceptibility; effect of Mdr1 inhibitor MCC1189 on azole susceptibility [2]: did not alter the susceptibility; agarose diffusion susceptibility [2]: susceptible; Kd [4]: ~500 nM; MIC80 [5]: 1.33 µM; MIC80 [6, 10]: 11.5 µM; MIC80 higher than AD3Δ ScErg11 cells ([6]; strain AD3Δ ScErg11 Y140H I471T, not corrected for expression, p < 0.001): approximately 3 fold; MIC80 higher than cells overexpressing ScLDM6×His Y140H ([6]; strain AD3Δ ScErg11 Y140H I471T, p < 0.001): 1.5 fold; resistance conferred, relative amount of recombinant ScLDM6×His taken into account [8]: 2.8 fold; MIC80 higher than strain AD3Δ ScErg11 ([8]; not corrected for expression): ~ 2 fold; MIC80/Relative Amount of ScLDM6×His [9]: 3.64 µM; MIC80 [9]: 3.64 µM
CC[C@@H]([C@H](C)O)n1ncn(-c2ccc(N3CCN(c4ccc(OC[C@@H]5CO[C@@](Cn6cncn6)(c6ccc(F)cc6F)C5)cc4)CC3)cc2)c1=O [PCZ, Posaconazole] | – | no effect on susceptibility | increased susceptibility | resistant | 0.646 µM | 1.5 × | 0.27 µM | 1.6 fold | 0.527 µM | 1.3 × | 0.33 µM | 0.445 µM | 1.1 × | effect of Mdr1 inhibitor MCC1189 on azole susceptibility [2, 11]: no effect on susceptibility; effect of Cdr1p inhibitor RC21v3 on azole susceptibility [2, 12]: increased susceptibility; Kd [4]: ~500 nM; MIC80 [5, 13]: 0.16 µM; MIC [6, 10]: 0.265 µM; resistance conferred, relative expression taken into account [6]: 1.5 fold; susceptibility compared with AD3Δ cells ([8]; cells overexpressing ScLDM6×His Y140H, not corrected for expression): slightly increased susceptibility; MIC80 [9, 14]: 0.423 µM; MIC80/Relative Amount of ScLDM6×His [9, 15]: 0.423 µM
O[C@@](Cn1cnnn1)(c1ccc(F)cc1F)C(F)(F)c1ccc(-c2ccc(OCC(F)(F)F)cc2)cn1 [VT-1161] | – | did not alter the susceptibility | did not alter the susceptibility | resistant | 0.165 µM | 2.2 × | 0.0346 µM | 2.2 fold | 0.0679 µM | 0.90 × | 0.116 µM | 0.157 µM | 2.1 × | effect of Mdr1 inhibitor MCC1189 on azole susceptibility [2, 11]: did not alter the susceptibility; effect of Cdr1p inhibitor RC21v3 on azole susceptibility [2, 12]: did not alter the susceptibility; agarose diffusion susceptibility [2]: susceptible; MIC80 [5, 13]: 0.0288 µM; MIC [6, 10]: 0.0676 µM; resistance conferred, relative expression taken into account [6]: 2.2 fold; resistance conferred, relative amount of recombinant ScLDM6×His taken into account [8]: 2.1 fold; resistance of cells containing the Y140H mutation in ScLDM6×His ([8]; discussion, significant but modest): 2 fold; MIC80 higher than strain AD3Δ ScErg11 ([8]; not corrected for expression): 1.5 fold; MIC80 [9, 14]: 0.0754 µM; MIC80/Relative Amount of ScLDM6×His [9, 15]: 0.0754 µM
CC(C1CC1)C(O)(Cn1cncn1)c1ccc(Cl)cc1 (stereo not drawn) [cyproconazole] | ~ 100 fold | – | – | – | – | – | – | – | – | – | – | – | – | –
CC1(C)CCC(Cc2ccc(Cl)cc2)C1(O)Cn1cncn1 (stereo not drawn) [metconazole] | ~ 100 fold | – | – | – | – | – | – | – | – | – | – | – | – | –
CC(C)(C)C(O)(CCc1ccc(Cl)cc1)Cn1cncn1 (stereo not drawn) [tebuconazole] | ~ 100 fold | – | – | – | – | – | – | – | – | – | – | – | – | –
